Series [1] addresses T1, Human 5-HT6 receptor (Homo sapiens, UniProt P50406).
T1 construct: expressed in transfected cells; host or cells: HEK293 cells
The series is described as follows: Binding assay for human 5-HT6 receptor ([3H]LSD radioligand). Conditions: human recombinant receptor in HEK293 cells; for inhibition at 0.1 µM: 100 nM test compound, [3H]LSD 1.5 nM, read-out: % Inhibition of specific binding at 100 nM; for Ki: [3H]LSD. The procedure:
Compounds can be tested according to the following the procedures.
Receptor source: Human recombinant expressed in HEK293 cells
Radioligand: [^3H]LSD (60-80 Ci/mmol)
Final ligand concentration—[1.5 nM]
Non-specific determinant: Methiothepin mesylate—[0.1 μM]
Reference compound: Methiothepin mesylate
Positive control: Methiothepin mesylate
Reactions were carried out in […] TRIS-HCl (pH 7.4) containing 10 μM MgCl2, 0.5 mM EDTA for 60 minutes at 37° C. The reaction was terminated by rapid vacuum filtration onto glass fiber filters. Radioactivity trapped onto the filters was determined and compared to control values in order to ascertain any interactions of test compound(s) with the cloned serotonin 5-HT6 binding site.
Percent Inhibition of Specific Binding at 100 nM Concentrations
Literature Reference: Monsma F. J. Jr., et al., Molecular Cloning and Expression of Novel Serotonin Receptor with High Affinity for Tricyclic Psychotropic Drugs. Mol. Pharmacol. (43): 320-327 (1993).

In series [2] the test system is rats. The experiment in a line: Water maze, scopolamine induced reversal. Format: in vivo. Conditions: p.o. The method, then:
The water maze apparatus consisted of a circular pool (1.8 m diameter, 0.6 m high) constructed in black Perspex (TSE systems, Germany) filled with water (24±2° C.) and positioned underneath a wide-angled video camera to track animal. The 10 cm^2 perspex platform, lying 1 cm below the water surface, was placed in the centre of one of the four imaginary quadrants, which remained constant for all rats. The black Perspex used in the construction of the maze and platform offered no intramaze cues to guide escape behavior. By contrast, the training room offered several strong extramaze visual cues to aid the formation of the spatial map necessary for escape learning. An automated tracking system, [Videomot 2 (5.51), TSE systems, Germany] was employed. This program analyzes video images acquired via a digital camera and an image acquisition board that determined path length, swim speed and the number of entries and duration of swim time spent in each quadrant of the water maze.

Series [3] can be described thus: Rodent brain penetration study (steady state). The class given is in vivo, Male Wister rats. The following applies: Wistar, brain and plasma; Wister/Male rat, 10 mg/kg, Oral, vehicle water; read-out: Steady State Brain Penetration Cb/Cp.
A short description of series [4]: Rodent pharmacokinetic study. Conditions: plasma, Wistar/Male rat, 10 mg/kg; for AUC(0-t) / Cmax / Tmax / half-life: vehicle water; for bioavailability: Oral vs Intravenous. Format: in vivo, Male wistar rats. The procedure:
Male wistar rats (230-280 grams) obtained from NIN (National Institute of Nutrition, Hyderabad, India) were used as an experimental animal.
Three to five animals were housed in each cage. Animals were kept fasted over night and maintained on a 12 hours light/dark cycle. Three rats were dosed NCE (10 mg/Kg) orally and intravenously on day 0 and day 2.
At each time point blood was collected by jugular vein. Plasma was stored frozen at −20° C. until analysis. The concentrations of the NCE compound in plasma were determined using LC-MS/MS method.
Schedule time points: Pre dose 0.25, 0.5, 1, 1.5, 2, 3, 4, 6, 8, 10, 12 and 24 hours after dosing (n=3). The NCE compounds were quantified in plasma by validated LC-MS/MS method using solid phase extraction technique. NCE compounds were quantified in the calibration range of 2-2000 ng/ml in plasma. Study samples were analyzed using calibration samples in the batch and quality control samples spread across the batch.
Pharmacokinetic parameters Cmax, Tmax, AUCt, AUCinf, half life, volume of distribution, clearance, mean residence time and thereby oral bioavailability were calculated by non-compartmental model using software WinNonlin version 5.1.

Series [5] concerns Male Wister rats. The experiment in a line: Object recognition task model (NORT). The class given is in vivo. The following applies: p.o.; for NORT Discriminative Index (DI), treatment: vehicle value in brackets in the cell; for NORT Inference: 10 and 30 mg/kg. The method, then: The cognition-enhancing properties of compounds of this invention were estimated using a model of animal cognition: the object recognition task model. Male Wister rats (230-280 grams) obtained from N.I.N. (National Institute of Nutrition, Hyderabad, India) were used as experimental animals. Four animals were housed in each cage. Animals were kept on 20% food deprivation before one day and given water ad libitum throughout the experiment and maintained on a 12 hours light/dark cycle. Also the rats were habituated to individual arenas for 1 hour in the absence of any objects.
One group of 12 rats received vehicle (1 mL/Kg) orally and another set of animals received compound of the formula (I) either orally or i.p., before one hour of the familiar (T1) and choice trial (T2).
The experiment was carried out in a 50×50×50 cm open field made up of acrylic. In the familiarization phase, (T1), the rats were placed individually in the open field for 3 minutes, in which two identical objects (plastic bottles, 12.5 cm height×5.5 cm diameter) covered in yellow masking tape alone (a1 and a2) were positioned in two adjacent corners, 10 cm. from the walls. After 24 hours of the (T1) trial for long-term memory test, the same rats were placed in the same arena as they were placed in T1 trial. Choice phase (T2) rats were allowed to explore the open field for 3 minutes in presence of one familiar object (a3) and one novel object (b) (Amber color glass bottle, 12 cm high and 5 cm in diameter). Familiar objects presented similar textures, colors and sizes. During the T1 and T2 trial, explorations of each object (defined as sniffing, licking, chewing or having moving vibrissae whilst directing the nose towards the object at a distance of less than 1 cm) were recorded separately by stopwatch. Sitting on an object was not regarded as exploratory activity, however, it was rarely observed. T1 is the total time spent exploring the familiar objects (a1+a2). T2 is the total time spent exploring the familiar object and novel object (a3+b).
The object recognition test was performed as described by Ennaceur, A., Delacour, J., 1988, A new one-trial test for neurobiological studies of memory in rats-Behavioral data, Behav. Brain Res., 31, 47-59.

The subject of series [6] is 5-HT6 receptor. The following applies: literature; cited from earlier work.

T1 sequence (P50406 whole entry): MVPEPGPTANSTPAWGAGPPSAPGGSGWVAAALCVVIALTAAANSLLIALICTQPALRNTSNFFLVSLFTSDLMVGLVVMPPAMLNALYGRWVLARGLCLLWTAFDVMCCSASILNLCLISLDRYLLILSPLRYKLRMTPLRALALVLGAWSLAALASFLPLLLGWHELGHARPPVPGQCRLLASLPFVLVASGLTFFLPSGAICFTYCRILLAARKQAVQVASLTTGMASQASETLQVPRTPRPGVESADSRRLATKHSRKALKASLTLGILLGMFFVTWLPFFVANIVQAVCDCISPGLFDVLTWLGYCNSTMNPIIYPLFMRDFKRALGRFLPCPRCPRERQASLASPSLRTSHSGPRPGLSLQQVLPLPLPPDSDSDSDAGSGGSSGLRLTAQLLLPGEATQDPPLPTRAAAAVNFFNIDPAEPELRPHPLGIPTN

As to `COc1ccc2c(c1)c(Cl)cn2S(=O)(=O)c1ccc(OC)c(NCCN(C)C)c1` [Example 2, N′-[5-(3-Chloro-5-methoxyindole-1-sulfonyl)-2-methoxyphenyl]-N,N-dimethyl ethane-1,2-diamine], in series [1], the inhibition (in general, the drop in the measured response relative to a control, in per cent) at 0.1 µM was found to be 84.9%.
With `COc1ccc2c(ccn2S(=O)(=O)c2ccc(C)c(NCCCN(C)C)c2)c1` [Example 9, N′-[5-(5-Methoxyindole-1-sulfonyl)-2-methylphenyl]-N,N-dimethyl propane-1,3-diamine], the inhibition constant (Ki) (in general, the equilibrium dissociation constant of an inhibitor or competing ligand from its target) in series [1] stood at 41 nM.
Regarding `COc1ccc(S(=O)(=O)n2cc(C)c3ccccc32)cc1NCCCN(C)C` [Example 31, N′-[2-Methoxy-5-(3-methylindole-1-sulfonyl)phenyl]-N,N-dimethyl propane-1,3-diamine], in series [2], the “Scopolamine Induced Reversal (active dose)” value is reported as “≧30 mg/kg, p.o”. For the same molecule, in series [3], the Kp turned out to be 3.48 ± 0.27. In series [1], the Ki came out at 2.92 nM. For the same molecule, in series [4] (Intravenous), the AUC(0-t) (as a rule, exposure summed from dosing to a finite time, without extrapolation to infinity) is 3480 ± 650 ng·h/mL; the Cmax (in general, the peak of the concentration-time curve) worked out at 1730 ± 682 ng/mL; the Tmax (in general, the time at which the peak concentration occurs) was 0.08 h; the half-life (in general, the time in which the quantity being followed falls by half) was 2.72 ± 0.4 h. For the same molecule, the bioavailability (in general, dose-corrected exposure relative to a reference, in per cent) in series [4] turned out to be 19 ± 7%. In addition, in series [4] (Oral), the AUC(0-t) came out at 674 ± 320 ng·h/mL, the highest level (Cmax) was 140 ± 76.8 ng/mL, the Tmax came to 2.33 ± 1.53 h and the half-life is 5.06 ± 3.28 h. Further, the “NORT Discriminative Index (DI), treatment” value (“NORT Discriminative Index” for short) in series [5] (10 mg/kg) was 0.54 (0.48). Also, the “NORT Discriminative Index” value in series [5] (30 mg/kg) was 0.52 (0.52). For the same molecule, the “NORT Inference” value in series [5] was “Active”.
As for `COc1ccc(S(=O)(=O)n2cc(Cl)c3ccccc32)cc1NCCN(C)C` [Example 3, N′-[5-(3-Chloroindole-1-sulfonyl)-2-methoxyphenyl]-N,N-dimethyl ethane-1,2-diamine], in series [1], the inhibition at 0.1 µM was 95.6% and the Ki was determined as 3.02 nM.
In the case of `COc1ccc2c(c1)c(C)cn2S(=O)(=O)c1ccc(OC)c(NCCCN(C)C)c1` [Example 35, N′-[2-Methoxy-5-(5-methoxy-3-methylindole-1-sulfonyl)phenyl]-N,N-dimethyl propane-1,3-diamine], the Ki in series [1] stood at 18.9 nM.
Consider `COc1ccc(S(=O)(=O)n2ccc3ccccc32)cc1NCCN(C)C` [Example 4, N′-[5-(Indole-1-sulfonyl)-2-methoxyphenyl]-N,N-dimethyl ethane-1,2-diamine], for which the Kp in series [3] came to 20.2 ± 1.84. Further, in series [1], the inhibition at 0.1 µM came to 90.5% and the Ki turned out to be 1.22 nM. For the same molecule, in series [4] (Intravenous), the AUC(0-t) was determined as 1870 ± 338 ng·h/mL, the highest level (Cmax) was 1590 ± 538 ng/mL, the Tmax was found to be 0.08 h and the half-life is 2.93 ± 1.29 h. Further, in series [4], the bioavailability was found to be 5 ± 2%. In series [4] (Oral), the AUC(0-t) is 88 ± 48 ng·h/mL, the Cmax was determined as 41 ± 19 ng/mL, the Tmax came out at 0.58 ± 0.38 h and the half-life is 1.95 ± 0.73 h.
As for `CN(C)CCC=C1c2ccccc2CCc2ccccc21` [amitriptyline], the “Affinity for the 5-HT6 receptor” value in series [6] is on record as “high affinity”.
Regarding `CN1CCN2c3ccccc3Cc3ccccc3C2C1` (stereo not shown) [mianserin], in series [6], the “Affinity for the 5-HT6 receptor” value is recorded as “high affinity”.
On to `COc1ccc2c(c1)c(C)cn2S(=O)(=O)c1ccc(C)c(NCCN(C)C)c1` [Example 8, N′-[5-(5-Methoxy-3-methylindole-1-sulfonyl)-2-methylphenyl]-N,N-dimethyl ethane-1,2-diamine], for which the Ki in series [1] stood at 17.3 nM.
With `COc1ccc(S(=O)(=O)n2cc(C)c3cc(F)ccc32)cc1NCCCN(C)C` [Example 33, N′-[2-Methoxy-5-(5-fluoro-3-methylindole-1-sulfonyl)phenyl]-N,N-dimethyl propane-1,3-diamine], in series [1], the Ki worked out at 7.34 nM.
Regarding `CCc1ccc(S(=O)(=O)n2ccc3cc(F)ccc32)cc1NCCN(C)C` [Example 13, N′-[2-Ethyl-5-(5-fluoroindole-1-sulfonyl)phenyl]-N,N-dimethyl ethane-1,2-diamine], in series [1], the inhibition at 0.1 µM was determined as 70.7%.
The same measure, in the same setting: the same measure for `COc1ccc2c(c1)c(C)cn2S(=O)(=O)c1ccc(OC)c(NCCN(C)C)c1` [Example 1, N′-[2-Methoxy-5-(5-methoxy-3-methylindole-1-sulfonyl)phenyl]-N,N-dimethyl ethane-1,2-diamine]: 82.9%; for `CCc1ccc(S(=O)(=O)n2ccc3cc(OC)ccc32)cc1NCCN(C)C` [Example 26, N′-[2-Ethyl-5-(5-methoxyindole-1-sulfonyl)phenyl]-N,N-dimethyl ethane-1,2-diamine]: 76%.
With `Cc1ccc(S(=O)(=O)n2ccc3ccc(Cl)cc32)cc1NCCN(C)C` [Example 20, N′-[5-(6-Chloroindole-1-sulfonyl)-2-methylphenyl]-N,N-dimethyl ethane-1,2-diamine], the inhibition at 0.1 µM in series [1] came out at 100%.
As for `CN(C)CCNc1cccc(S(=O)(=O)n2ccc3ccc(Cl)cc32)c1` [Example 23, N′-[3-(6-Chloroindole-1-sulfonyl)phenyl]-N,N-dimethyl ethane-1,2-diamine], the inhibition at 0.1 µM in series [1] stood at 96%.
For the molecule `COc1ccc(S(=O)(=O)n2cc(C)c3ccccc32)cc1NCCN(C)C` [Example 5, N′-[2-Methoxy-5-(3-methylindole-1-sulfonyl)phenyl]-N,N-dimethyl ethane-1,2-diamine], in series [2], the “Scopolamine Induced Reversal (active dose)” value is “≧3 mg/kg, p.o”. Moreover, the Kp in series [3] is 13.5 ± 4.28. Moreover, in series [1], the inhibition at 0.1 µM turned out to be 93% and the inhibition constant (Ki) came to 1.52 nM. Further, in series [4] (Intravenous), the AUC(0-t) came out at 2860 ± 442 ng·h/mL, the highest level (Cmax) was 1960 ± 458 ng/mL, the Tmax worked out at 0.08 h and the half-life was 3.37 ± 0.29 h. Besides, the bioavailability in series [4] turned out to be 6 ± 1%. Moreover, in series [4] (Oral), the AUC(0-t) worked out at 158 ± 20 ng·h/mL, the peak level (Cmax) was 36 ± 8 ng/mL, the Tmax came out at 1.33 ± 0.58 h and the half-life is 2.27 ± 0.2 h. Moreover, in series [5] (10 mg/kg), the “NORT Discriminative Index” value is given as 0.46 (0.52). Further, the “NORT Discriminative Index” value in series [5] (30 mg/kg) is 0.58 (0.56). In addition, in series [5], the “NORT Inference” value is on record as “Active”.
Take `CCc1ccc(S(=O)(=O)n2cc(C)c3cc(OC)ccc32)cc1NCCN(C)C` [Example 15, N′-[2-Ethyl-5-(5-methoxy-3-methylindole-1-sulfonyl)phenyl]-N,N-dimethyl ethane-1,2-diamine]: the inhibition at 0.1 µM in series [1] came out at 56.4%.

Source of the values: patent US7964627B2, “Amino arylsulfonamide compounds and their use as 5-HT6 ligands” (Suven Life Sciences Limited, priority 2007, dated 2011).
